Where two headings read alike, the source gives them in different places.
Details: rabbit, in vivo, sc
Protocol: For the rabbit model, 2.5-3 kg New Zealand male rabbits were used with 3 rabbits per group. Rabbits were allowed to adapt for 7 days and free access to water and food. Ketamine (40 mg/kg) and Xylazine (5 mg/kg) were used to anesthetize the rabbits. To withdraw blood samples, a 24-gauze Teflon catheter was inserted into the center auricular artery. The catheter was connected to a heparin cap filled with 0.9% saline solution.
Enoxaparin at doses of 3 and 6 mg/kg was given by subcutaneous injection at time 0. Blood samples were collected 0, 3, 5, 10, 15, 30 min, 1, 2, 3, 4, 6, 8, 12 hours after subcutaneous injection and processed as described above. The plasma was collected at indicated times and analyzed for anti-Xa assay as described. Enoxaparin for subcutaneous injection was formulated as a solution in PBS or water at 100 mg/ml concentration and appropriate doses were injected.
An anti-Xa assay was used to monitor plasma LMWH levels. The anti-Xa assay was performed using a modification of the amidolytic method of Teien and Lie (Thrombosis res. 10: 399-410, 1977) with the Coatest heparin test kit by using S-2222 as the chromogenic substrate (Diapharma Group, Inc. OH). […] The concentration of enoxaparin in unknown samples was calculated by comparing readings to the calibration curve which was linear in the range of 0.1-0.7 IU/ml.
Experimental data, expressed in anti-Xa IU/mL, was utilized for non-linear regression curves based on a one-compartment model (Comelli and Fareed, Semin thromb Hemost, 25: 57-61, 1999) by using SigmaPlot program with the method of extended least squares. From the kinetic curves, the following parameters were calculated: the area under curve (AUC expressed in IU*hr*ml^−1), absorption half-life (t1/2 expressed in hr); and half-life of apparent elimination (t1/2e expressed in hr). The AUC (0-t) was calculated using the trapezoidal rule (Rowland and Tozer, Clinical Pharmacokinetics. Concepts and Applications. 459-461, Lea and Febiger, 1989) and extrapolated to infinity (AUC) by dividing the value of the last measured concentration by the elimination rate constant.

Row | absorption half-life [h] | AUC (IU*hr/mL) (3 mg/kg) | Ka (3 mg/kg) | Ke (3 mg/kg) [h⁻¹] | MRT (AUMC/AUC) (3 mg/kg) [h] | AUC (IU*hr/mL) (6 mg/kg) | Ka (6 mg/kg) | Ke (6 mg/kg) [h⁻¹] | MRT (AUMC/AUC) (6 mg/kg) [h] | Substance
1 | 1 to 2 | 6.93 IU*hr/mL | 0.40 | 0.33 | 4.97 | 13.27 IU*hr/mL | 0.32 | 0.27 | 5.93 | dalteparin
2 | 1 to 2 | 6.27 IU * hr/mL | 0.40 | 0.35 | 4.75 | 13.45 IU * hr/mL | 0.35 | 0.3 | 5.48 | enoxaparin

From patent publication US20040087543A1, “Methods and products for mucosal delivery” (priority 2002, published 2004)
